PMC8518382, “Identification of a Bromodomain‐like Region in 15‐Lipoxygenase‐1 Explains Its Nuclear Localization” (Angewandte Chemie (International Ed. in English), 2021)

What was measured:
H3K56Ac peptide = assay: ELISA; ELISA formatted binding study between histone H3 peptides and 15‐LOX‐1; concentrations up to 20 μM; Hill‐slopes equal 1; not told which partner was immobilised
H3K4Ac peptide = assay: as above
5-LOX = biological target: T1, 5-LOX (Homo sapiens, UniProt P09917); assay: ABP-based ELISA assay with A549 cell lysate, 5-LOX; assay type: biochemical
T1 construct: the endogenous LOXs were captured on an anti‐LOX antibody precoated 96‐well plate; endogenous in cells; host or cells: A549 cell lysate
T1 sequence (P09917 1-674): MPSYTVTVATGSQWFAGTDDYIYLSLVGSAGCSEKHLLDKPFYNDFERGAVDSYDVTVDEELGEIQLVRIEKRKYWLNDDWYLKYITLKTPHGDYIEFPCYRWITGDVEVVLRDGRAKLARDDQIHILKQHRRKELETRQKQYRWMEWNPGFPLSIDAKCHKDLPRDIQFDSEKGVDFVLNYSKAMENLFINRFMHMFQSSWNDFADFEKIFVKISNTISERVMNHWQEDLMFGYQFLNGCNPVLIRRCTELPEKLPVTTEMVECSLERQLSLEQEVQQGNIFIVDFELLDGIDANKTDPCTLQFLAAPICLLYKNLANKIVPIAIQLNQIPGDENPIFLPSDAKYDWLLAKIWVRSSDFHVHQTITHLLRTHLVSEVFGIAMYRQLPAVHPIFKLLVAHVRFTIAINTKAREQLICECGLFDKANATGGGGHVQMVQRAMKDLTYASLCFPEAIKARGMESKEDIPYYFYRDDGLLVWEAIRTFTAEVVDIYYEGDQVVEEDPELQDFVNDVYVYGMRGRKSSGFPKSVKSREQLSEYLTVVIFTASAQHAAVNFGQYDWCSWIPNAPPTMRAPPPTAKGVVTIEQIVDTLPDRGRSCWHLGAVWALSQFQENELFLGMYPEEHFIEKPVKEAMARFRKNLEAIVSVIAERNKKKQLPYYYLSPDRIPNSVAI
Method: (§1) A549 cell lysate was treated with a serial dilution of the respective inhibitor. Subsequently, samples were labeled by treatment with 1 μM of Labelox B for 1 min. […] Data are mean±s.d., n≥3 independent experiments. […]
(§2) 1.6. Immunoblotting Analysis […]
(§3) 1.7. ABPP-based LOX inhibitor specificity validation
(§4) A549 cells were lysed by RIPA buffer supplemented with 1x PIC. After sonication and centrifugation, the supernatant was collected, and the protein concentration was determined by a Pierce BCA Protein Assay Kit (Thermo Fisher Scientific, USA). The lysates were then diluted with PBS to 300 ng/µl and stored in -20°C. To label endogenous LOXs with Labelox B under the competition condition, 180 µl diluted lysates were incubated with 200 µl different LOX inhibitor solution (in PBS) with desired concentrations for 18 min to inhibit LOXs activity. Later, 20 µl of a 20 µM Labelox B (in PBS) was added and incubated shortly for 2 min, followed by adding 50 µl of a 0.5 M EDTA to stop the labeling reaction. The reaction mixture was 450 µl in total. Inhibitors and Labelox B were absent in positive and […]
(§5) negative control, respectively. To detect the competition labeling of Labelox B among different LOXs, a high-binding 96-well plate (Greiner, #M4561) was coated with 5-LOX (#ab169755, Abcam), 12-LOX […]
(§6) (1:500 dilution in PBS) for overnight at 4°C. After washing triply with 0.05%PBST, the plate was blocked with 2% (w/v) BSA in PBST. Subsequently, 100 µl of each reaction mixture was added to the LOX-antibody-coated wells. There are four LOX antibodies used for coating. Therefore, in total, 400 µl mixture is needed for each reaction. After one hour of incubation, LOXs were pulled down by antibodies accordingly. Next, 100 µl of HRP-conjugated streptavidin (1:2000 dilution in PBS, Thermo Fisher Scientific, USA) was added to each well to detect the D04 labeled LOXs among precipitated LOXs. After washing with PBST, 100 µl of mixed HRP substrate reagent (R&D Systems, Minneapolis, USA) was added, and the colorizing reaction was stopped by adding 100 µl of 1M sulfuric acid. The absorbance at […]

15-LOX-1 = biological target: T2, 15-LOX-1 (Homo sapiens, UniProt P16050); assay: ABP-based ELISA assay with A549 cell lysate, 15-LOX-1; assay type: biochemical; design: the endogenous LOXs were captured on an anti‐LOX antibody precoated 96‐well plate; endogenous in cells; host or cells: A549 cell lysate
T2 sequence (P16050 1-662): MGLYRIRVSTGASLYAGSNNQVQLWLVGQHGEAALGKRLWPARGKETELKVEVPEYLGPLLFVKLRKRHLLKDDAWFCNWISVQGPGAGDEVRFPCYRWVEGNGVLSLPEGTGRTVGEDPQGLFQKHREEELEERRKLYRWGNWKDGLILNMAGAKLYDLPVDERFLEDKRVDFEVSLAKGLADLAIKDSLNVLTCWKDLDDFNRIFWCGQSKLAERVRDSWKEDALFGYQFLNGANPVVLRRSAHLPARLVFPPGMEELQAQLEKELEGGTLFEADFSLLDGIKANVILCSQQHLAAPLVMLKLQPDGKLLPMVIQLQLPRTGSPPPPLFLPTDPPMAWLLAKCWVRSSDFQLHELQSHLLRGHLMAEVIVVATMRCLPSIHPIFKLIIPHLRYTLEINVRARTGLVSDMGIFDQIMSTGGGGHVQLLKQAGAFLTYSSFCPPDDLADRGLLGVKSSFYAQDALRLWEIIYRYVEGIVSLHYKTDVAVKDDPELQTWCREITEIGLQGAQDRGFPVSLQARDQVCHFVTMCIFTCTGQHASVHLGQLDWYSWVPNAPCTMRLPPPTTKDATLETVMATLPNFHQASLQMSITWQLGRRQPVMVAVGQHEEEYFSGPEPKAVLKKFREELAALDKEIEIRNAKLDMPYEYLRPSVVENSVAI
Method: as §1, §2, §3, §4, §5, §6

12-LOX = biological target: T3, 12-LOX (Homo sapiens, UniProt P18054); assay: ABP-based ELISA assay with A549 cell lysate, 12-LOX; assay type: biochemical
T3 construct: the endogenous LOXs were captured on an anti‐LOX antibody precoated 96‐well plate; endogenous in cells; host or cells: A549 cell lysate
T3 sequence (P18054 1-663): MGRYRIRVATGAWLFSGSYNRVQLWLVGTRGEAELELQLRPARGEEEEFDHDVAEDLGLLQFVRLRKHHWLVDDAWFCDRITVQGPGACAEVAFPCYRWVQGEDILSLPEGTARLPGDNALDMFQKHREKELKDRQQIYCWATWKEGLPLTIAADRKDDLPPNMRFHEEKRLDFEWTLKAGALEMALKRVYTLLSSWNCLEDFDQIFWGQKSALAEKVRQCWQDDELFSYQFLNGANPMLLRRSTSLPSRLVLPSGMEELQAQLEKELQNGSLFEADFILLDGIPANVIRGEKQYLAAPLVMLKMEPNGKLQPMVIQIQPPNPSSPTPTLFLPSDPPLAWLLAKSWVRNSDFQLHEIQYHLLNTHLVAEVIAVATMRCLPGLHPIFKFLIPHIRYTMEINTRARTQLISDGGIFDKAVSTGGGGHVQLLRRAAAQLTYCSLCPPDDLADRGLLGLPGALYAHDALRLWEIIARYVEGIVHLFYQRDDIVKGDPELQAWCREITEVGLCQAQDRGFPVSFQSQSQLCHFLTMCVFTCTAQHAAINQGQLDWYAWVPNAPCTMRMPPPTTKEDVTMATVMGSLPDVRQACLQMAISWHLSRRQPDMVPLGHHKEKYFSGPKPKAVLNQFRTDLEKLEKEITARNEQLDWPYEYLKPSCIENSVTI
Method: as §1, §2, §3, §4, §5, §6

Row | Kd (H3K56Ac peptide) | Kd (H3K4Ac peptide) | Compound | HillSlope Value (5-LOX) | Effect on ABP labeling (15-LOX-1) | HillSlope Value (12-LOX) | IC50 (12-LOX; 1 μM Labelox B)
1 | 1.65 µM | > 20 µM | recombinant 15‐LOX‐1 (from UniProt P16050 1-662) (enzyme) |  |  |  | 
2 |  |  | CC(c1cc2ccccc2s1)N(O)C(N)=O (stereo not drawn) [Zileuton] | -0.48 | little or no effect | -0.47 | 554 µM
